Consider 17 molecules from patent US20250019385A1, “SPIROCYCLIC ANNULATED 2-AMINO-3-CYANO THIOPHENES AND DERIVATIVES FOR THE TREATMENT OF CANCER” (Boehringer Ingelheim International GmbH, priority 2023, published 2025).

What is called IC50 is the concentration that gives 50% inhibition. Read a high IC50 as a need for much substance.

The subject of one data set is Ba/F3 cells KRAS G12V. Briefly: Ba/F3 proliferation assay (KRAS G12V). The data set is classed as cell-based. The note with it: Mus musculus, BaF3, 72 h, AlamarBlue viability. Put shortly:
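Ba/F3 cells retrovirally transduced with KRAS G12 mutant, puromycin-selected, grown IL-3-independent; seeded in RPMI-1640 + 10% FCS without IL-3. Logarithmic compound dose series in duplicate, 72 h at 37° C., AlamarBlue fluorescence as % of DMSO control; IC50 from four-parameter non-linear regression.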
(In general: Resazurin is reduced to fluorescent resorufin, in cell work by metabolically active cells.)

The subject of a further data set is SK-CO-1 cells. Description: SK-CO-1 CTG proliferation assay (120 h) (CRC, G12V). Format: cell-based. The conditions noted are these: Homo sapiens. In outline: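 Cells seeded overnight in EMEM with 10% FCS, then given logarithmic dose series in duplicate for 120 h at 37° C. CellTiter-Glo luminescence expressed as percent of DMSO controls, with a T0 read at dosing; IC50 by four-parameter non-linear regression.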

The subject of another data set is NCI-H727 cells. Description: NCI-H727 CTG proliferation assay (120 h) (lung cancer, G12V). The data set is classed as cell-based. The conditions noted are these: Homo sapiens. Put shortly:
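Cells seeded at 500/well in RPMI + 10% FCS, left overnight, then dosed with a log dilution series in technical duplicate; untreated T0 plate read at compound addition. After 120 h at 37 °C, CellTiter-Glo luminescence read; viability as % of DMSO control, IC50 from four-parameter non-linear regression.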

The nature of data set [1]: Metabolic (microsomal) stability assay, human liver microsomes (HLM). The note with it: 1 μM test compound, predicted clearance as percent of liver blood flow. Format: in vitro ADME.

The structures appear in SMILES notation.

Take `CO[C@H]1CCN(C)[C@@H]1[C@H](C)Oc1nc(-c2onc3c2CCC[C@@]32CCCc3sc(N)c(C#N)c32)nc2c1CN(C1COC1)C[C@]21CCOC1` [I-57]: the IC50 was determined as 2 nM in the data set with Ba/F3 cells KRAS G12V, 7 nM with SK-CO-1 cells and 3 nM in the data set with NCI-H727 cells. In addition, in data set [1], the “HLM QH” value is 61%.
For the molecule `CO[C@@H]1C[C@@H]([C@H](C)Oc2nc(-c3onc4c3CCC[C@@]43CCCc4sc(N)c(C#N)c43)nc3c2CN(C2COC2)C[C@]32CCOC2)N(C)C1` [I-58], the IC50 in the data set with Ba/F3 cells KRAS G12V is 2 nM; with SK-CO-1 cells, 9 nM; in the data set on NCI-H727 cells, 5 nM. The “HLM QH” value in data set [1] is 52%.
Regarding `CO[C@H]1CCN(C)[C@@H]1[C@H](C)Oc1nc(-c2noc3c2CCC[C@@]32CCCc3sc(N)c(C#N)c32)nc2c1n(C)c(=O)n2[C@@H]1CCOC1` [II-1], the IC50 with Ba/F3 cells KRAS G12V was determined as 2 nM; in the data set on SK-CO-1 cells it was 4 nM; in the data set on NCI-H727 cells it was 2 nM. The “HLM QH” value in data set [1] is 80%.
For the molecule `C[C@H](Oc1nc(-c2noc3c2CCC[C@@]32CCCc3sc(N)c(C#N)c32)nc2c1n(C)c(=O)n2[C@@H]1CCOC1)[C@@H]1CCCN1C` [II-2], the IC50 in the data set with Ba/F3 cells KRAS G12V was 2 nM; in the data set on SK-CO-1 cells it was 3 nM; with NCI-H727 cells it was 3 nM. Besides, the “HLM QH” value in data set [1] is recorded as 40%.
Take `CO[C@H]1CCN(C)[C@@H]1[C@H](C)Oc1nc(-c2noc3c2CCC[C@@]32CCCc3sc(N)c(C#N)c32)nc2c1n(C)c(=O)n2[C@@H]1CCCOC1` [II-3]: the values for the IC50 in the data set on Ba/F3 cells KRAS G12V, in the data set with SK-CO-1 cells and with NCI-H727 cells were 2 nM, 5 nM and 5 nM, respectively. Besides, in data set [1], the “HLM QH” value is recorded as 80%.
For `C[C@H](Oc1nc(-c2noc3c2CCC[C@@]32CCCc3sc(N)c(C#N)c32)nc2c1cnn2[C@@H]1CCOC1)[C@@H]1CCCN1C` [II-4], the IC50 in the data set with Ba/F3 cells KRAS G12V was determined as 5 nM; in the data set with SK-CO-1 cells it was 10 nM; in the data set on NCI-H727 cells it was 12 nM. Also, the “HLM QH” value in data set [1] is reported as 40%.
For `CO[C@@H]1C[C@@H]([C@H](C)Oc2nc(-c3noc4c3CCC[C@@]43CCCc4sc(N)c(C#N)c43)nc3c2n(C)c(=O)n3[C@@]23COC[C@@H]2C3)N(C)C1` [II-6], the IC50 in the data set with Ba/F3 cells KRAS G12V is 1 nM; in the data set with SK-CO-1 cells, 2 nM; in the data set with NCI-H727 cells, 1 nM. Further, the “HLM QH” value in data set [1] is 52%.
In the case of `C[C@H](Oc1nc(-c2noc3c2CCC[C@@]32CCCc3sc(N)c(C#N)c32)nc2c1COC[C@]21CCOC1)[C@@H]1CCCN1C` [II-8], the IC50 in the data set on Ba/F3 cells KRAS G12V, with SK-CO-1 cells and with NCI-H727 cells was 1 nM in each case. Besides, the “HLM QH” value in data set [1] is on record as 46%.
On to `C[C@H](Oc1nc(-c2noc3c2CCC[C@@]32CCCc3sc(N)c(C#N)c32)nc2c1COC[C@@]21CCOC1)[C@@H]1CCCN1C` [II-9a], for which the IC50 in the data set on Ba/F3 cells KRAS G12V turned out to be 28 nM; in the data set on SK-CO-1 cells, 101 nM; with NCI-H727 cells, 22 nM. For the same molecule, the “HLM QH” value in data set [1] is reported as 29%.
In the case of `C[C@H](Oc1nc(-c2noc3c2CCC[C@@]32CCCc3sc(N)c(C#N)c32)nc2c1CCO[C@]21CCOC1)[C@@H]1CCCN1C` [II-9b], the IC50 was 2 nM with Ba/F3 cells KRAS G12V, 9 nM in the data set on SK-CO-1 cells and 4 nM with NCI-H727 cells. Also, the “HLM QH” value in data set [1] was 33%.
The like results for `C[C@H](Oc1nc(-c2noc3c2CCC[C@@]32CCCc3sc(N)c(C#N)c32)nc2c1CCCO[C@]21CCOC1)[C@@H]1CCCN1C` [II-10] were, in that order, 6 nM, 4 nM, 7 nM and 47%.
The corresponding values for `CO[C@@H]1C[C@@H]([C@H](C)Oc2nc(-c3noc4c3CCC[C@@]43CCCc4sc(N)c(C#N)c43)nc3c2COC[C@]32CCOC2)N(C)C1` [II-11] are 1 nM, 4 nM, 1 nM and 64%.
The like results for `C[C@H](Oc1nc(-c2noc3c2CCC[C@@]32CCCc3sc(N)c(C#N)c32)nc2c1CN(C1COC1)C[C@]21CCOC1)[C@@H]1CCCN1C` [II-12] were, in that order, 1 nM, 5 nM, 3 nM and 26%.
With `CO[C@H]1CCN(C)[C@@H]1[C@H](C)Oc1nc(-c2noc3c2CCC[C@@]32CCCc3sc(N)c(C#N)c32)nc2c1CN(C1COC1)C[C@]21CCOC1` [II-13], the IC50 came to 1 nM with Ba/F3 cells KRAS G12V, 3 nM in the data set with SK-CO-1 cells and 1 nM in the data set with NCI-H727 cells. Besides, in data set [1], the “HLM QH” value is recorded as 66%.
For the molecule `CO[C@@H]1C[C@@H]([C@H](C)Oc2nc(-c3noc4c3CCC[C@@]43CCCc4sc(N)c(C#N)c43)nc3c2CN(C2COC2)C[C@]32CCOC2)N(C)C1` [II-14], the half-maximal inhibitory concentration (IC50) with Ba/F3 cells KRAS G12V was found to be 2 nM; in the data set on SK-CO-1 cells it was 6 nM; in the data set on NCI-H727 cells, 3 nM. Further, the “HLM QH” value in data set [1] is 59%.
The like results for `C[C@H](Oc1nc(-c2noc3c2CCC[C@@]32CCCc3sc(N)c(C#N)c32)nc2c1CNC[C@]21CCOC1)[C@@H]1CCCN1C` [II-15] were, in that order, 2 nM, 5 nM, 3 nM and 63%.
The corresponding values for `C[C@H](Oc1nc(-c2noc3c2CCC[C@@]32SCCc3sc(N)c(C#N)c32)nc2c1COC[C@]21CCOC1)[C@@H]1CCCN1C` [II-16] are 1 nM, 2 nM, 1 nM and 64%.
